# According to ChEMBL document CHEMBL4196217, “Structure-Based Drug Design and Identification of H2O-Soluble and Low Toxic Hexacyclic Camptothecin Derivatives with Improved Efficacy in Cancer and Lethal Inflammation Models in Vivo” (J Med Chem, 2018):
# pIC50: −log10 of the molar value. Activity calls are given as the source filed them. No cut-off for these calls is given here.
# Experiments:
# MDA-MB-231 = assay: Cytotoxicity in human MDA-MB-231 cells assessed as reduction in cell viability incubated for 48 hrs by MTT assay; format: functional, cell-based; conditions: MDA-MB-231, 48 h
# HepG2 [1] = assay: Cytotoxicity in human HepG2 cells assessed as reduction in cell viability incubated for 48 hrs by MTT assay; format: functional, cell-based; conditions: HepG2, 48 h
# KB = assay: Cytotoxicity in human KB cells assessed as reduction in cell viability incubated for 48 hrs by MTT assay; format: functional, cell-based
# Bel-7402 = assay: Cytotoxicity in human Bel7402 cells assessed as reduction in cell viability incubated for 48 hrs by MTT assay; format: functional, cell-based; conditions: Bel-7402, 48 h
# SMMC-7721 = assay: Cytotoxicity in human SMMC7721 cells assessed as reduction in cell viability incubated for 48 hrs by MTT assay; format: functional, cell-based; conditions: SMMC-7721, 48 h
# MGC-803 [2] = assay: Cytotoxicity in human MGC803 cells assessed as reduction in cell viability incubated for 48 hrs by MTT assay; format: functional, cell-based; conditions: MGC-803, 48 h
# QGY-7703 = assay: Cytotoxicity in human QGY7703 cells assessed as reduction in cell viability incubated for 48 hrs by MTT assay; format: functional, cell-based; conditions: QGY-7703, 48 h
# SGC-7901 = assay: Cytotoxicity in human SGC7901 cells assessed as reduction in cell viability incubated for 48 hrs by MTT assay; format: functional, cell-based; conditions: SGC-7901, 48 h
# A549 = assay: cells; conditions: Homo sapiens, A549, 48 h
# Description: Cytotoxicity in human A549 cells assessed as reduction in cell viability incubated for 48 hrs by MTT assay
# MCF7 = assay: cells; conditions: Homo sapiens, MCF7, 48 h
# Description: Cytotoxicity in human MCF7 cells assessed as reduction in cell viability incubated for 48 hrs by MTT assay
# SK-N-SH = assay: Cytotoxicity in human SK-N-SH cells assessed as reduction in cell viability incubated for 48 hrs by MTT assay; format: functional, cell-based
# HepG2 [3] = assay: Antitumor activity against human HepG2 cells xenografted in Balb/C mouse assessed as inhibition of tumor growth at dosed intravenously once per week for 30 days followed by 2 weeks observation; format: functional, organism-based
# [4] = target: T1, DNA topoisomerase 1 (Homo sapiens) (UniProt P11387); assay: Inhibition of human recombinant topoisomerase-1 activity at 50 uM using supercoiled pHOT-1 DNA incubated for 30 mins by ethidium bromide free agarose gel elctrophoresis method
# T1 sequence (whole entry): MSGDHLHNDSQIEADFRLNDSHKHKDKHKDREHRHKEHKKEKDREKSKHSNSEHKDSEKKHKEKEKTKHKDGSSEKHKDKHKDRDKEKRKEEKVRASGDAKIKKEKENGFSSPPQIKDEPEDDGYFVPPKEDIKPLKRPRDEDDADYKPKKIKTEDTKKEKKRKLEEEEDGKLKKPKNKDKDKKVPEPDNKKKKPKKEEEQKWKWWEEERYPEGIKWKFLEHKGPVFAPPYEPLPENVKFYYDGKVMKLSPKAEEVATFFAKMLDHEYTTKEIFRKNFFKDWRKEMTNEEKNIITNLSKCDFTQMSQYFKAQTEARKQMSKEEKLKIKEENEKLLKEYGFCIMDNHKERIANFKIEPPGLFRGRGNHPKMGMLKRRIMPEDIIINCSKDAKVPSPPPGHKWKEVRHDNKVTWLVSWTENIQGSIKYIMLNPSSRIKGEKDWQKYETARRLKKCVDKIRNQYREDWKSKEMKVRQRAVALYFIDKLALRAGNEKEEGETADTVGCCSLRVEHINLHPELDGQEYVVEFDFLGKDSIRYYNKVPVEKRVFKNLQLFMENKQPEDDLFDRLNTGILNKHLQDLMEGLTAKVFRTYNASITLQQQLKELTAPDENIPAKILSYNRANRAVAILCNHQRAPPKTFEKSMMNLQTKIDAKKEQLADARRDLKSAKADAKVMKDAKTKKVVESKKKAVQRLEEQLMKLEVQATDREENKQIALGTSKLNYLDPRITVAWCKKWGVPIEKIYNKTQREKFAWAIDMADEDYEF
# [5] = target: T1, DNA topoisomerase 1 (Homo sapiens); assay: Inhibition of human recombinant topoisomerase-1 activity at 100 uM using supercoiled pHOT-1 DNA incubated for 30 mins by ethidium bromide free agarose gel elctrophoresis method
# [6] = target: T1, DNA topoisomerase 1 (Homo sapiens); assay: Inhibition of human recombinant topoisomerase-1-mediated DNA cleavage in at 50 uM using supercoiled pHOT-1 DNA incubated for 30 mins by ethidium bromide staining based agarose gel elctrophoresis method
# [7] = target: T1, DNA topoisomerase 1 (Homo sapiens); assay: Inhibition of human recombinant topoisomerase-1-mediated DNA cleavage in at 100 uM using supercoiled pHOT-1 DNA incubated for 30 mins by ethidium bromide staining based agarose gel elctrophoresis method
# Mus musculus [8] = assay: Reduction in IL6 level in C57BL/6 mouse model of LPS-induced sepsis at 10 mg/kg, po dosed 0.5 hrs before LPS injection followed by 10 mg/kg, po dosing at 1 hr, 4 hrs, and 8 hrs after LPS treatment; format: functional, organism-based
# Mus musculus [9] = assay: Reduction in IL6 level in C57BL/6 mouse model of LPS-induced sepsis at 10 mg/kg, po dosed 0.5 hrs before LPS injection followed by 20 mg/kg, po dosing at 1 hr, 4 hrs, and 8 hrs after LPS treatment; format: functional, organism-based
# [10] = Aqueous solubility of the compound; format: physicochemical; conditions: buffer
# Mus musculus [11] = assay: Toxicity in Balb/C mouse administered as single dose measured daily for up to 28 days; format: organism-based; conditions: in vivo, 672 h
# Mus musculus [12] = assay: Toxicity in Balb/C mouse administered as daily dose for 1 week measured daily for up to 28 days; format: organism-based; conditions: in vivo
# HepG2 [13] = assay: Potency index, ratio of IC50 for topotecan to IC50 for test compound for cytotoxicity in human HepG2 cells assessed as reduction in cell viability incubated for 48 hrs by MTT assay; format: functional
# MGC-803 [14] = assay: Potency index, ratio of IC50 for topotecan to IC50 for test compound for cytotoxicity in human MGC803 cells assessed as reduction in cell viability incubated for 48 hrs by MTT assay; format: functional
Compound,pIC50 (MDA-MB-231),pIC50 (HepG2 [1]),pIC50 (KB),pIC50 (Bel-7402),pIC50 (SMMC-7721),pIC50 (MGC-803 [2]),pIC50 (QGY-7703),pIC50 (SGC-7901),pIC50 (A549),pIC50 (MCF7),also measured
CC[C@@]1(O)C(=O)OCc2c1cc1n(c2=O)Cc2cc3c(ccc4ocnc43)nc2-1,5.81,6.74,5.59,5.61,5.51,6.64,4.94,< 5.00,5.69,5.64,
CC[C@@]1(OC(=O)CNC(=O)CCC(=O)O)C(=O)OCc2c1cc1n(c2=O)Cc2cc3c(ccc4oncc43)nc2-1,6.19,6.46,5.15,5.70,< 5.00,6.56,< 5.00,< 5.00,5.74,< 5.00,pIC50 (SK-N-SH): 6.26
CC[C@@]1(O)C(=O)OCc2c1cc1n(c2=O)Cc2cc3c(ccc4oc(CC(C)C)nc43)nc2-1,5.67,7.10,5.66,5.67,4.96,7.05,< 5.00,< 5.00,5.47,5.10,
CCCCc1nc2c(ccc3nc4c(cc32)Cn2c-4cc3c(c2=O)COC(=O)[C@]3(O)CC)o1,6.25,7.20,5.65,5.69,< 5.00,7.07,< 5.00,< 5.00,5.95,5.67,
CC[C@@]1(OC(=O)CNC(=O)CCC(=O)O)C(=O)OCc2c1cc1n(c2=O)Cc2cc3c(ccc4oc(C(C)C)nc43)nc2-1,,,,,,,,,,,TGI (HepG2 [3]): Dose-dependent effect; inhibition [4]: Active; inhibition [5]: Active; inhibition [6]: Active; inhibition [7]: Active; Activity (Mus musculus [8]): Active; Activity (Mus musculus [9]): Active
CC[C@@]1(OC(=O)CNC(=O)CCC(=O)[O-])C(=O)OCc2c1cc1n(c2=O)Cc2cc3c(ccc4oc(C(C)C)nc43)nc2-1.[Na+],,,,,,,,,,,solubility [10]: 5070 µg/mL; MTD (Mus musculus [11]): 60 mg/kg; MTD (Mus musculus [12]): 30 mg/kg
CC[C@@]1(O)C(=O)OCc2c1cc1n(c2=O)Cc2cc3c(ccc4oc(C(C)C)nc43)nc2-1,5.84,7.80,5.66,5.46,4.98,7.74,4.94,< 5.00,5.86,5.33,Ratio IC50 (HepG2 [13]): 10; Ratio IC50 (MGC-803 [14]): 10
